Here are results for 1 compound from patent US12522575B2, “2-diarylmethyl-4-aminotetrahydropyran derivatives and related compounds as anticancer, antiinflammatory, antifibrotic and neuroprotective agents” (Atux Iskay LLC, priority 2021, dated 2026).

The structures appear in SMILES notation.

In one data set the test system is A172 glioblastoma cells. Kind of data set: A172 cell viability / proliferation (CellTiter-Glo). It is filed as cell-based. The note with it: Homo sapiens, A 172, 48-72 hours treatment, read-out: IC50 for A172 cell growth. As for the experimental part: (§1) A172 glioblastoma cells were cultured in Dulbecco's modified Eagle's medium (DMEM) supplemented with 10% fetal bovine serum and 1% Penicillin-streptomycin. Incubation was performed at 37° C. and 5% CO2.
A172 cells were seeded at 3000-3500 cells/90 μL growth medium per well on 96-well tissue culture plates. Cells were incubated overnight to allow them to recover and reattach. Next day cells were treated with tested compounds and incubated for 48-72 hours.
Cell Proliferation assays in triplicate were performed at each concentration. Compounds test range was 1-30 µM (0, 5, 10, 15, 20, 25, and 30). The compounds were dissolved in DMSO. […]
After treatment, cells were allowed to equilibrate at room temperature for 1/2 to one hour. Cell proliferation was measured by Luminescence quantification using Promega CellTiter-Glo Luminescent Cell Viability Assay. […] Luminescence intensity was measured using the Spectramax i3× plate reader.
The Luminescence intensity data were analyzed using the computer software Graphpad Prism. In the absence of the compound, the luminescence intensity (Lt) in each data set was defined as 100% cell viability. The percent cell in the presence of each compound was calculated according to the following equation: % Cell=L/Lt, were L=the luminescence intensity in the presence of the compound. […]
In general terms: In ATP-based viability assays light output follows the ATP content of the culture.

For data set [1], the system named is phosphatase activity in ApoE transfected A172 glioblastoma cells. Kind of data set: Cellular in vitro phosphatase activation assay (Malachite Green) in ApoE transfected A172 cells. In kind it is cell-based. As to conditions: 24 hours. As for the experimental part: Cellular in vitro phosphatase activation assay was performed using the method of Theendakara et al, Molecular and Cellular Neuroscience, 83 (2017), pages 83-91 which is described below:
as §1
A172 cells were seeded at 5×10^5 cells/2.5 ml growth medium (without antibiotics) per well on 6-well tissue culture plates. Cells were incubated overnight to allow them to recover and reattach. […]
After 24 hrs, cells were washed twice with imidazole buffer and lysed using NP-40 Lysis buffer. […] The amount of phosphate release in the assay was determined by measuring absorbance at 620 nm using the Spectramax i3x plate reader.
The absorbance intensity data were analyzed using the computer software Graphpad Prism. The phosphate concentration for each sample was determined from the standard curve using phosphate standard concentrations. In order to compare samples, the first set (column A) were there was no transfection performed and no compound added, was designated a baseline; the absorbance measurement in this column was set as 100% phosphatase activity.

The subject of data set [2] is bleomycin-induced pulmonary fibrosis. The experiment in a line: Bleomycin induced lung fibrosis model in mice. In kind it is in vivo. An excerpt:
Bleomycin exposure reproducibly induces lung fibrosis in mice and bleomycin induced lung fibrosis is commonly used as an animal model to assess the efficacy of experimental therapeutics for idiopathic pulmonary fibrosis, see for example Tashiro et al, “Exploring Animal Models that Resemble Idiopathic Pulmonary Fibrosis”, Front. Med. 4:118 (2017). doi: 10.3389/fmed.2017.0018. Herein presented are data on the efficacy of Example 6 (Ex-6) in cellular models of lung fibrosis and in a mouse bleoycin induced lung fibrosis model, see FIGS. 1 through 8.
In brief, the animal model consisted of bleomycin administration using a combined protocol previously described by Wyman et al (Wyman, A. E., et al., “Sirtuin 7 is decreased in pulmonary fibrosis and regulates the fibrotic phenotype of lung fibroblasts”. Am J Physiol Lung Cell Mol Physiol, 2017. 312 (6): p. L945-L958.) and Geraghty et al (Geraghty, P. and Foronjy, R. ‘Protein Transfection of Mouse Lung’. J Vis Exp, (75), e50080 2013 May 15). After sedation was achieved (87.5 mg/kg Ketamine/12.5 mg/kg xylazine), mice were suspended from their upper incisors (see Geraghty et al. for visual publication of intratracheal delivery). The oropharynx was opened so that a catheter/Penn Century MicroSprayer (Penn-Century, Wyndmoor, Philadelphia, PA) can be introduced into the trachea. The vocal cords and trachea were visualized by placing a light source against the trachea of the mouse. The MicroSprayer was inserted intratracheally, and the bleomycin solution (0.075 U/mouse) was instilled in 50 μL of sterile PBS. The MicroSprayer creates a mist rather than droplets, for better tissue distribution and reduces the risk of animal suffocation. Control mice were instilled with 50 μl of sterile PBS with no additives. This intratracheal maneuvering and delivery took about 30 seconds to complete. Animals were allowed to recover from sedation. Water was supplemented with the compound/drug beginning either before, 7 or 20 days after bleomycin treatment.
Ex-6 was dosed at 5 mg/kg in the bleomycin induced fibrosis. In vivo data is shown in FIG. 3: C57BL/6J mice were orally administered 5 mg/kg Ex-6 once daily, beginning on the same day as bleomycin (BLM) treatment to test if activation of PP2A could prevent establishment of idiopathic pulmonary fibrosis (IPF). […] Differences were shown in compliance, tissue elastance, and forced vital capacity of 3-month-old C57BL/6J mice following administration of vehicle or Example 6 after tracheal instillation of saline or bleomycin, indicating prevention of bleomycin-induced pulmonary fibrosis in mice by administration of Example 6. Graphs were represented as mean±S.E.M, where n=7 animals per group. P values, shown when comparing both treatments connected by a line, were determined by Student t-tests. […]

In data set [3] the test system is lung fibroblasts from healthy subjects. The experiment in a line: Fibrosis associated gene expression in lung fibroblasts. In kind it is cell-based. The note with it: 1 μM, 24 hours, TGF-β (FIG. 1). As for the experimental part:
Each dot represents cells from a different subject. Student t-tests or 2-way ANOVA were performed and a p-value […] was denoted as * when comparing to the vehicle treated groups or ** when comparing to the TGF-β vehicle groups.
Compounds of the present invention activate PP2A responses in fibroblasts from healthy subjects. Lung fibroblasts from 6 subjects were stimulated with 1 micromolar of example compounds for 24 hours.

In general, IC50 refers to the concentration needed to halve the response being measured. As for `O=S(=O)(NC1CCOC(C2c3ccc(F)cc3CCc3cc(F)ccc32)C1)c1ccc(OC(F)(F)F)cc1` (stereo not shown) [Example 6, N-(2-(2,8-difluoro-10,11-dihydro-5H-dibenzo[a,d][7]annulen-5-yl)tetrahydro-2H-pyran-4-yl)-4-(trifluoromethoxy)benzenesulfonamide], the IC50 in the data set with A172 glioblastoma cells turned out to be 9.9 µM. Also, in data set [1], the “% increase from ApoE transfected cell at 5 μM test compound concentration” value was 6.8%. The “bleomycin-induced PV loop changes, compliance, tissue elastance and forced vital capacity (FVC)” value in data set [2] (5 mg/kg orally once daily from the day of bleomycin, C57BL/6J mice (FIG. 6)) was “prevented”. In addition, the “collagen deposition in lung (trichrome staining)” value in data set [2] (bleomycin mice, vs vehicle control (FIG. 7)) was “attenuates collagen deposition”. The “bleomycin-induction of fibrosis related genes Acta2, Ccn2, Col1a1, FN1 in lung tissue” value in data set [2] (bleomycin mice, vs vehicle control (FIG. 8)) is recorded as “suppressed”. Moreover, the “toxicity in mice (external appearance, behavior, body weight)” value in data set [2] (three-week administration, vs vehicle groups) was “no obvious toxicity”. Besides, the pro-fibrotic gene expression result in data set [3] is on record as “suppression of pro-fibrotic gene expression”.
